Reference: ChEMBL document CHEMBL4152353, “Synthesis of DNA interactive C3-trans-cinnamide linked β-carboline conjugates as potential cytotoxic and DNA topoisomerase I inhibitors” (Bioorg Med Chem, 2018)
pIC50: −log10 of the molar value. Activity calls are given as the source filed them. The calls are words filed in the database; no cut-off is given here.

Assays:
Calf thymus DNA [1] = assay: Binding affinity to calf thymus DNA assessed as hypochromic shift at 50 uM by UV-Vis absorption spectrophotometric method; assay type: nucleic-acid assay; conditions: Bos taurus
MCF7 [2] = assay: Cytotoxicity against human MCF7 cells assessed as cell death at 1 uM after 24 hrs by propidium iodide/Hoechst 33342 staining based fluorescence microscopic analysis; assay type: functional
A549 = assay: Cytotoxicity against human A549 cells after 48 hrs by MTT assay; assay type: functional, cell-based; conditions: A549, 48 h
MCF7 [3] = assay: Cytotoxicity against human MCF7 cells after 48 hrs by MTT assay; assay type: functional, cell-based; conditions: MCF7, 48 h
B16 = assay: Cytotoxicity against mouse B16 cells after 48 hrs by MTT assay; assay type: functional, cell-based; conditions: B16, 48 h
HeLa = assay: Cytotoxicity against human HeLa cells after 48 hrs by MTT assay; assay type: functional, cell-based
NIH3T3 [4] = assay: Cytotoxicity against mouse NIH/3T3 cells after 48 hrs by MTT assay; assay type: cell-based; conditions: NIH3T3, 48 h
MCF7 [5] = assay: Cell cycle arrest in human MCF7 cells assessed as accumulation at subG1 phase at 0.5 uM after 48 hrs by propidium iodide staining based flow cytometry (reference value: 3.04%); assay type: functional
MCF7 [6] = assay: Cell cycle arrest in human MCF7 cells assessed as accumulation at subG1 phase at 1 uM after 48 hrs by propidium iodide staining based flow cytometry (reference value: 3.04%); assay type: functional
MCF7 [7] = assay: Cell cycle arrest in human MCF7 cells assessed as accumulation at G1 phase at 0.5 uM after 48 hrs by propidium iodide staining based flow cytometry (reference value: 45.98%); assay type: functional
MCF7 [8] = assay: Cell cycle arrest in human MCF7 cells assessed as accumulation at G1 phase at 1 uM after 48 hrs by propidium iodide staining based flow cytometry (reference value: 45.98%); assay type: functional
MCF7 [9] = assay: Cell cycle arrest in human MCF7 cells assessed as accumulation at S-phase at 0.5 uM after 48 hrs by propidium iodide staining based flow cytometry (reference value: 15.64%); assay type: functional
MCF7 [10] = assay: Cell cycle arrest in human MCF7 cells assessed as accumulation at S-phase at 1 uM after 48 hrs by propidium iodide staining based flow cytometry (reference value: 15.64%); assay type: functional
MCF7 [11] = assay: Cell cycle arrest in human MCF7 cells assessed as accumulation at G2/M-phase at 0.5 uM after 48 hrs by propidium iodide staining based flow cytometry (reference value: 33.65%); assay type: functional
MCF7 [12] = assay: Cell cycle arrest in human MCF7 cells assessed as accumulation at G2/M-phase at 1 uM after 48 hrs by propidium iodide staining based flow cytometry (reference value: 33.65%); assay type: functional
MCF7 [13] = assay: Induction of apoptosis in human MCF7 cells assessed as increase in number of wrinkled cells at 1 uM after 48 hrs by Hoechst 33342 staining based confocal microscopic analysis; assay type: functional, cell-based
MCF7 [14] = assay: Induction of apoptosis in human MCF7 cells assessed as DNA fragmentation at 1 uM after 48 hrs by Hoechst 33342 staining based confocal microscopic analysis; assay type: functional, cell-based
NIH3T3 [15] = assay: Cytotoxicity against mouse NIH/3T3 cells assessed as cell death at 1 uM after 24 hrs by propidium iodide/Hoechst 33342 staining based fluorescence microscopic analysis; conditions: nih3t3, 24 h
Calf thymus DNA [16] = assay: Binding affinity to calf thymus DNA assessed as maximum absorption peak at 50 uM by UV-Vis absorption spectrophotometric method; assay type: nucleic-acid assay; conditions: Bos taurus
Calf thymus DNA [17] = assay: Binding affinity to calf thymus DNA at 50 uM by UV-Vis absorption spectrophotometric method; assay type: nucleic-acid assay; conditions: Bos taurus
Calf thymus DNA [18] = assay: Binding affinity to calf thymus DNA assessed as fluorescence quenching at 10 uM by spectrofluorimetric method; assay type: nucleic-acid assay; conditions: Bos taurus
Calf thymus DNA [19] = assay: Binding affinity to calf thymus DNA assessed as DNA winding at 1:1 to 1:2 ratio of DNA to compound by circular dichroism analysis; assay type: nucleic-acid assay; conditions: Bos taurus
Calf thymus DNA [20] = assay: Binding affinity to calf thymus DNA assessed as increase in viscosity at 15 uM by viscometric method; assay type: nucleic-acid assay; conditions: Bos taurus
Topoisomerase I = target: T1, Topoisomerase I (Bos taurus, UniProt Q2HPH0); assay: Inhibition of calf thymus topoisomerase 1-mediated relaxation of supercoiled pBR322 DNA measured after 30 mins by agarose gel electrophoresis method
T1 sequence (Q2HPH0 whole entry): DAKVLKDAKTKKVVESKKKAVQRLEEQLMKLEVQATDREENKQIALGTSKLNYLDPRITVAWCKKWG

MCF7 [21] = assay: Induction of apoptosis in human MCF7 cells assessed as viable cells at 0.5 uM after 48 hrs by Annexin-V-FITC/propidium iodide staining based flow cytometry (reference value: 96.18%); assay type: functional; conditions: MCF7, 48 h, read-out: Activity
MCF7 [22] = assay: Induction of apoptosis in human MCF7 cells assessed as early apoptotic cells at 0.5 uM after 48 hrs by Annexin-V-FITC/propidium iodide staining based flow cytometry (reference value: 0.09%); assay type: functional
MCF7 [23] = assay: Induction of apoptosis in human MCF7 cells assessed as late apoptotic cells at 0.5 uM after 48 hrs by Annexin-V-FITC/propidium iodide staining based flow cytometry (reference value: 0.06%); assay type: functional
MCF7 [24] = assay: Induction of apoptosis in human MCF7 cells assessed as necrotic cells at 0.5 uM after 48 hrs by Annexin-V-FITC/propidium iodide staining based flow cytometry (reference value: 3.67%); assay type: functional
MCF7 [25] = assay: Induction of apoptosis in human MCF7 cells assessed as viable cells at 1 uM after 48 hrs by Annexin-V-FITC/propidium iodide staining based flow cytometry (reference value: 96.18%); assay type: functional; conditions: MCF7, 48 h, read-out: Activity
MCF7 [26] = assay: Induction of apoptosis in human MCF7 cells assessed as early apoptotic cells at 1 uM after 48 hrs by Annexin-V-FITC/propidium iodide staining based flow cytometry (reference value: 0.09%); assay type: functional
MCF7 [27] = assay: Induction of apoptosis in human MCF7 cells assessed as late apoptotic cells at 1 uM after 48 hrs by Annexin-V-FITC/propidium iodide staining based flow cytometry (reference value: 0.06%); assay type: functional
MCF7 [28] = assay: Induction of apoptosis in human MCF7 cells assessed as necrotic cells at 1 uM after 48 hrs by Annexin-V-FITC/propidium iodide staining based flow cytometry (reference value: 3.67%); assay type: functional

Activity (Calf thymus DNA [1]): 6 nm
Activity (Calf thymus DNA [16]): 287 to 369 nm
K (Calf thymus DNA [17]): 3 ×10⁵ /M
Activity (Calf thymus DNA [18]): Active
Activity (Calf thymus DNA [19]): Active
Activity (Calf thymus DNA [20]): Active
pIC50 (Topoisomerase I): 7.85
SMILES: COc1ccc(-c2nc(CNC(=O)/C=C/c3ccc(Cl)cc3)cc3c2[nH]c2ccccc23)cc1
Activity (MCF7 [2]): Active
pIC50 (A549): 7.72
pIC50 (MCF7 [3]): 7.85
pIC50 (B16): 7.78
pIC50 (HeLa): 7.67
pIC50 (NIH3T3 [4]): 7.42
Activity (MCF7 [5]): 5.4%
Activity (MCF7 [6]): 2.97%
Activity (MCF7 [7]): 42.32%
Activity (MCF7 [8]): 42.38%
Activity (MCF7 [9]): 17.6%
Activity (MCF7 [10]): 16.72%
Activity (MCF7 [11]): 33.1%
Activity (MCF7 [12]): 37.42%
Activity (MCF7 [13]): Active
Activity (MCF7 [14]): Active
Activity (NIH3T3 [15]): Non-Toxic
viability at 0.5 µM (MCF7 [21]): 91.2%
Activity (MCF7 [22]): 6.65%
Activity (MCF7 [23]): 0.81%
Activity (MCF7 [24]): 1.29%
viability at 1 µM (MCF7 [25]): 84.8%
Activity (MCF7 [26]): 6.69%
Activity (MCF7 [27]): 2.43%
Activity (MCF7 [28]): 6.04%
